Literature values in US20200236944A1, “DIURON-CONTAINING FRUIT THINNING AGENT” (ADAMA AGAN LTD., priority 2017, published 2020).

What was measured:
[1] = tested on: orange trees; conditions: 2500 ppm diuron
[2] = tested on: peach leaves; conditions: 100 ppm diuron

CN(C)C(=O)Nc1ccc(Cl)c(Cl)c1 [diuron, 3-(3,4-dichlorophenyl)-1,1-dimethylurea]
Fruiting of orange trees [1]: partially prevent the fruiting
Photosynthesis rate for peaches [2]: long-lasting and thus undesirably low
